System: senescent preadipocytes (C12FDG^Hi) in eWAT of HFD mice
Assay: C12FDG flow cytometry assay (SA-βgal activity) on eWAT SVF of HFD mice
Type: in vivo, mouse
Conditions: HFD-fed mice treated with ABT-737 vs vehicle-treated controls
Description: MATERIALS AND METHODS. Mouse husbandry. All procedures involving mice were performed according to the IACUC standards following ethics approval by the animal committee at the University of California, San Francisco. Male C57BL6/J on chow or HFD fed mice. HFD mice were fed a high-fat diet (60% kcal from fat) from 6 weeks until 22 weeks of age. All experiments on HFD mice were performed at 22-24 weeks total age (16-18 weeks on HFD). Age-matched male C57BL6/J mice on standard rodent chow diet were used as controls. For the lung injury model, 10-week-old male C57BL/6J mice were used. The animals were divided into three groups: the control group, the injured group, and the α-GalCer treated group. The animals in the control group received vehicle only (i.p.) on day 10. The injured group animals received bleomycin (3 U/kg) via the intratracheal route at the start of the experiment (day 0). The animals in the α-GalCer treated groups received bleomycin (3 U/kg) on day 0, and i.p. injection of α-GalCer (2 μg/mouse) on day 10. The animals in all the groups were sacrificed on day 14, and lungs were harvested for isolation of primary pulmonary Alveolar Type II cells (ATII) on the same day. For the hydroxyproline assay, mice were euthanized 21 days after injury.
Epidydmal white adipose tissue stromal vascular fraction (eWAT SVF) isolation. eWAT SVF was isolated using standard protocols. Briefly, mice were euthanized, and epididymal fat pads were harvested, washed twice in D-PBS and minced. eWAT pads were digested with 1 U/ml Collagenase-D (Roche) in 1×HBSS containing 1% BSA (Sigma-Aldrich) for 1 hr at 37° C. Digested fat tissue was then strained twice through 100 μm strainers and neutralized with 30 ml of complete culture media (DMEM-F12 1:1, 10% FBS, 1×Penicillin-streptomycin). Samples were spun at 500 g for 5 minutes, shaken to resuspend the SVF pellet and then spun again. The resulting SVF pellet containing blood cells was lysed with ACKS buffer, washed in D-PBS and spun down. Total live SVF cells were counted using trypan blue and then used for various assays.
C12FDG flow cytometry assay. eWAT SVF cells isolated and counted as described above were adjusted to 3×10^6 cells/ml in complete culture media and incubated with 33 μM C12FDG for 1 hr in a 37° C. water bath. Cells were then spun down at 500 g for 5 minutes, washed with Cell Staining buffer, and stained with anti-CD45-APC (clone 30F-11) and anti-CD31-PE-Cy7 (clone 390) each at a 1:200 dilution on ice for 30 minutes. Cells were then washed in Cell Staining buffer and resuspended in Cell Staining buffer containing 1×7-AAD. Samples were analyzed on an Attune acoustic focusing cytometer. Gates were set as follows: cells (FSC-A/SSC-A), forward scatter singlets (FSC-H/FSC-A), side-scatter singlets (SSC-H/SSC-A), live cells (7-AAD^−), non-immune cells (CD45^−), non-endothelial cells (CD31^−) and analyzed for C12FDG fluorescence. […] Data were analyzed with FlowJo (v. 10). For Lung, 1×10^6 cells from each sample were used to perform the assay. The cells were incubated with 66 μm of C12FDG in sterile DMEM containing DNase for 1 hour at 37° C. Following the incubation, the cells were washed with cell staining buffer, blocked with anti CD16/32 mouse monoclonal antibody (1:1000, prepared by the UCSF monoclonal antibody core), and stained with APC anti-mouse CD45 (1:400), and 7-AAD (1:1000). The gating strategy followed selected 7-AAD^−, CD45^−, and C12FDG^+ cells. […]

CN(C)CC[C@H](CSc1ccccc1)Nc1ccc(S(=O)(=O)NC(=O)c2ccc(N3CCN(Cc4ccccc4-c4ccc(Cl)cc4)CC3)cc2)cc1[N+](=O)[O-] [ABT-737]
number of C12FDG^Hi cells in preadipocyte-enriched SVF population (FIG. 2C): reduced the number of C12FDG^Hi cells
relative number of C12FDG^Lo cells in preadipocyte-enriched SVF population (FIG. 2D): increased the relative number of C12FDG^Lo cells

Reference: US20230172984A1, “CLEARANCE OF SENESCENT CELLS BY ACTIVATION OF iNKT CELLS” (THE REGENTS OF THE UNIVERSITY OF CALIFORNIA, priority 2020, published 2023)
